In patent publication US20150252048A1, “SUBSTITUTED N-(3-PYRIMIDIN-4-YL)PHENYL)ACRYLAMIDE ANALOGS AS TYROSINE RECEPTOR KINASE BTK INHIBITORS” (UNIVERSITY OF UTAH RESEARCH FOUNDATION, priority 2012, published 2015):
Values joined by “and” are separate entries in the source; they are usually repeats but may differ in a detail not shown here. Identical values can stand only once. Like-named read-outs stand apart in the source and are kept apart here.

Legend:
[1] = target: T1, recombinant full-length human BTK kinase (Homo sapiens, UniProt Q06187); assay: BTK kinase assay: ADP generation assay (ADP-Glo); format: biochemical; conditions: 60 nM BTK, MBP substrate, 60 min
T1 construct: recombinant full-length human BTK kinase with a (His)6 tag; (His)6; purchased Invitrogen Corporation, Carlsbad, Calif
Protocol: The primary assay for compound inhibitory activity was the ADP generation assay described herein. Test compounds were diluted to desired concentrations in kinase reaction buffer and briefly incubated with recombinant full-length human BTK kinase with a (His)6 tag (81.3 kDa; Invitrogen Corporation, Carlsbad, Calif.). The assay as described is based on volumes used in a standard 384 well format using solid, white-wall plates. The reaction was subsequently initiated by the addition of ATP and myelin basic protein (MBP) substrate (Millipore Corporation, Waltham, Mass.). Composition of the assay reaction mixture ([…]) was: 5% v/v DMSO, 60 nM BTK, 1.6 µM ATP, and 20 µM MBP substrate. After incubation at room temperature for 60 min, […] (Promega Corporation, Madison, Wis.) was added to each well and incubated for an additional 40 minutes. The reagent stopped the kinase reaction and depleted the unconsumed ATP. Kinase Detection reagent ([…]; Promega Corporation) was then added to each well. The Kinase Detection reagent comprises reagents to convert ADP to ATP and provide luciferase and luciferin to detect ATP. Luminescence was measured on an EnVision microplate reader (PerkinElmer). The amount of luminescence from each reaction is directly correlated with BTK kinase activity. Percent inhibition and IC50 values were calculated by comparing enzyme activity in drug-treated wells to the appropriate controls.
IC50 values are determined using GraphPad Prism 5 software. The data were entered as an X-Y plot into the software as percent inhibition for each concentration of the drug. The concentration values of the drug were log transformed and the nonlinear regression was carried out using the “sigmoidal dose-response (variable slope)” option within the GraphPad software to model the data and calculate IC50 values. The IC50 values reported are the concentration of drug at which 50% inhibition was reached.
Activity (IC50) was determined in the BTK assays describe herein below, i.e. either the ADP generation assay and/or the time-resolved FRET assay, and the data are shown in Table III. The compound number corresponds to the compound numbers used in Table I. In the table below, “ADP Assay” refers to the assay which measures production of ADP resulting from use of ATP by the kinase; and “HTRF Assay” refers to the time resolved-FRET kinase assay described in the examples. Multiple values in a given column indicate the results of more than one assay for the given compound. Representative data of the type used to determine the IC50 values for the ADP assay in Table III are shown in FIG. 8 for compounds 3, 4, and 5.

BTK = BTK (Homo sapiens, UniProt Q06187); assay: Specific kinase IC50 assay; format: biochemical; conditions: 1 μM ATP, 10-dose, duplicate
Protocol: In addition, the compound IC50 was determined in six specific kinase assays. The kinases that the compound was assayed against were as follows: BMX/ETK, BTK, EGFR (T790M), ERBB4/HER4, JAK3, and TEC. The assays were carried out in the presence of 1 μM ATP and were conducted in a 10-dose format in duplicate with three-fold serial dilutions starting at 10 μM. The calculated IC50s are shown in Table IX, and representative dose response curves from these assays are shown in FIG. 5 (Panels A: BMX/ETK kinase assay; Panel B: BTK kinase assay; Panel C: EGFR (T790M) kinase assay; Panel D: ERBB4/HER4 kinase assay; Panel E: JAK3 kinase assay; and Panel F: TEC kinase assay). The data in Figure show the individual assay duplicate assay results a line fit to the data; 100% activity is the activity in the […] of test compound. […].

Microsomal stability = format: in vitro ADME, mouse; conditions: for Compound Remaining: mouse microsomes 0.5 mg protein/mL, 1 μM; for half-life at 1 μM: mouse, microsomes
Protocol: Data were also obtained for the stability of Compound 3 when incubated with a microsomal preparation. Drug metabolism can occur, at least in part, in cellular microsomes, and thus the assay assesses the stability of drug to metabolic modification. The concentration of compound 3 was 1 μM in the assay system and the indicated microsomes were present at 0.5 mg total protein per milliliter. The concentration of intact drug was determined at the indicated timepoints using a LC-MS/MS assay. The enzyme activity of the microsomes used in this study were assessed using a positive control, testosterone.

T1 sequence (Q06187 whole entry): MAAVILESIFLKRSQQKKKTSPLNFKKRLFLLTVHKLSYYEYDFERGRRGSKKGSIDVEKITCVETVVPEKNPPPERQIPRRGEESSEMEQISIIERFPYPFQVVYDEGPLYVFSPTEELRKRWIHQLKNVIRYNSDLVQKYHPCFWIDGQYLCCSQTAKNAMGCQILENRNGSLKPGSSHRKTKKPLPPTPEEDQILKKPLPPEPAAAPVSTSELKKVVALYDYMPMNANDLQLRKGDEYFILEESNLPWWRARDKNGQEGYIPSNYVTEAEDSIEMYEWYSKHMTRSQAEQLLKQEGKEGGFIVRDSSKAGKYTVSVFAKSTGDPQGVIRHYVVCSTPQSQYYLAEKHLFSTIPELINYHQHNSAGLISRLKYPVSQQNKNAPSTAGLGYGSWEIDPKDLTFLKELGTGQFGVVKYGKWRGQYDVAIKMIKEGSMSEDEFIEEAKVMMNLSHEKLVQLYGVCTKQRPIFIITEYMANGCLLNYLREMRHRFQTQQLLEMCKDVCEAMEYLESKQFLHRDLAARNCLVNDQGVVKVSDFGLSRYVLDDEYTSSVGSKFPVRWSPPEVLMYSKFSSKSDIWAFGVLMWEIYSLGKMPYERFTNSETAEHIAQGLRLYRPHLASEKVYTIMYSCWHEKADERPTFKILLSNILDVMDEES
BTK, sequence (Q06187 whole entry): as above

## C=CC(=O)Nc1cccc(-c2nc(Nc3cccc(N4CCOCC4)c3)nc3[nH]ncc23)c1 [Compound 3, N-(3-(6-((3-morpholinophenyl)amino)-1H-pyrazolo[3,4-d]pyrimidin-4-yl)phenyl)acrylamide]
[1]
  IC50: 5 nM and 6 nM and 8 nM
BTK
  IC50: 12.3 nM
Microsomal stability; 0 min
  Compound Remaining: 100 % of initial amount
Microsomal stability; 10 min
  Compound Remaining: 24.3 % of initial amount
Microsomal stability; 20 min
  Compound Remaining: 6.12 % of initial amount
Microsomal stability; 30 min
  Compound Remaining: 1.62 % of initial amount
Microsomal stability; 60 min
  Compound Remaining: 0.72 % of initial amount
Microsomal stability; mouse microsomes, read-out: CLinit (intrinsic clearance)
  microsomal CLint at 1 μM: 160 µL/min/mg
Microsomal stability; mouse microsomes, expressed as < shortest incubation time, read-out: t1/2
  half-life at 1 μM: < 10 min
Microsomal stability; mouse microsomes, read-out: t1/2, calculated half-life in parentheses
  half-life at 1 μM: 8.6 min
